In ChEMBL document CHEMBL5608186, “Design, synthesis and structure-activity relationships of novel non-ketolides: 9-Oxime clarithromycin featured with seven-to thirteen-atom-length diamine linkers at 3-OH” (Eur J Med Chem, 2024):
Values after ≈ are worked out from the molar mass of the structure shown.

How the values were obtained:
Assay type in all cases: functional
[1] = test system: Streptococcus pneumoniae; test: Bactericidal activity against Streptococcus pneumoniae 07P390 harboring c-erm gene incubated for 16 to 20 hrs by CLSI based broth microdilution method; settings: time 16-20 hrs
[2] = test system: Staphylococcus aureus; test: Bactericidal activity against methicillin-resistant Staphylococcus aureus PU 20 harboring c-ermA gene incubated for 16 to 20 hrs by CLSI based broth microdilution method; settings: time 16-20 hrs
[3] = test system: Haemophilus influenzae; test: Selectivity ratio of MBC for Haemophilus influenzae ATCC 49247 to MIC for Haemophilus influenzae ATCC 49247
[4] = test system: Staphylococcus aureus; test: Bactericidal activity against methicillin-resistant Staphylococcus aureus PU 32 harboring i-ermA gene incubated for 16 to 20 hrs by CLSI based broth microdilution method; settings: time 16-20 hrs
[5] = test system: Staphylococcus aureus; test: Antibacterial activity against methicillin-resistant Staphylococcus aureus PU 20 harboring c-ermA gene incubated for 16 to 20 hrs by CLSI based broth microdilution method; settings: time 16-20 hrs
[6] = test system: Streptococcus pneumoniae; test: Bactericidal activity against Streptococcus pneumoniae ATCC 49619 incubated for 16 to 20 hrs by CLSI based broth microdilution method; settings: time 16-20 hrs
[7] = test system: Streptococcus pneumoniae; test: Selectivity ratio of MBC for Streptococcus pneumoniae 07P390 harboring c-erm gene to MIC for Streptococcus pneumoniae 07P390 harboring c-erm gene
[8] = test system: Streptococcus pneumoniae; test: Selectivity ratio of MBC for Streptococcus pneumoniae PU 09 harboring mef gene to MIC for Streptococcus pneumoniae PU 09 harboring mef gene
[9] = test system: Haemophilus influenzae; test: Antibacterial activity against Haemophilus influenzae ATCC 49247 incubated for 16 to 20 hrs by CLSI based broth microdilution method; settings: time 16-20 hrs
[10] = test system: Haemophilus influenzae; test: Bactericidal activity against Haemophilus influenzae ATCC 49247 incubated for 16 to 20 hrs by CLSI based broth microdilution method; settings: time 16-20 hrs
[11] = test system: Staphylococcus aureus; test: Antibacterial activity against methicillin-resistant Staphylococcus aureus PU 32 harboring i-ermA gene incubated for 16 to 20 hrs by CLSI based broth microdilution method; settings: time 16-20 hrs
[12] = test system: Streptococcus pneumoniae; test: Antibacterial activity against Streptococcus pneumoniae PU 09 harboring mef gene incubated for 16 to 20 hrs by CLSI based broth microdilution method; settings: time 16-20 hrs
[13] = test system: Streptococcus pyogenes; test: Selectivity ratio of MBC for Streptococcus pyogenes 01-968 harboring i-ermB gene to MIC for Streptococcus pyogenes 01-968 harboring i-ermB gene
[14] = test system: Streptococcus pneumoniae; test: Antibacterial activity against Streptococcus pneumoniae ATCC 49619 incubated for 16 to 20 hrs by CLSI based broth microdilution method; settings: time 16-20 hrs
[15] = test system: Streptococcus pyogenes; test: Bactericidal activity against Streptococcus pyogenes 01-968 harboring i-ermB gene incubated for 16 to 20 hrs by CLSI based broth microdilution method; settings: time 16-20 hrs
[16] = test system: Staphylococcus aureus; test: Selectivity ratio of MBC for methicillin-resistant Staphylococcus aureus PU 32 harboring i-ermA gene to MIC for methicillin-resistant Staphylococcus aureus PU 32 harboring i-ermA gene
[17] = test system: Streptococcus pneumoniae; test: Antibacterial activity against Streptococcus pneumoniae 07P390 harboring c-erm gene incubated for 16 to 20 hrs by CLSI based broth microdilution method; settings: time 16-20 hrs
[18] = test system: Streptococcus pneumoniae; test: Bactericidal activity against Streptococcus pneumoniae PU 09 harboring mef gene incubated for 16 to 20 hrs by CLSI based broth microdilution method; settings: time 16-20 hrs
[19] = test system: Streptococcus pneumoniae; test: Selectivity ratio of MBC for Streptococcus pneumoniae ATCC 49619 to MIC for Streptococcus pneumoniae ATCC 49619
[20] = test system: Streptococcus pyogenes; test: Antibacterial activity against Streptococcus pyogenes 01-968 harboring i-ermB gene incubated for 16 to 20 hrs by CLSI based broth microdilution method; settings: time 16-20 hrs

Row | Compound | MBC [1] [mg/L] | MBC [2] [mg/L] | Selectivity ratio [3] | MBC [4] [mg/L] | MIC [5] [mg/L] | MBC [6] [mg/L] | Selectivity ratio [7] | Selectivity ratio [8] | MIC [9] [mg/L] | MBC [10] [mg/L] | MIC [11] [mg/L] | MIC [12] [mg/L] | Selectivity ratio [13] | MIC [14] [mg/L] | MBC [15] [mg/L] | Selectivity ratio [16] | MIC [17] [mg/L] | MBC [18] [mg/L] | Selectivity ratio [19] | MIC [20] [mg/L]
1 | CC[C@H]1OC(=O)[C@H](C)[C@@H](OC(=O)CCN2CCN(c3cc4c(cc3F)c(=O)c(C(=O)O)cn4C3CC3)CC2)[C@H](C)[C@@H](O[C@@H]2O[C@H](C)C[C@H](N(C)C)[C@H]2O)[C@](C)(OC)C[C@@H](C)/C(=N\OCC#Cc2cncc(C(=O)NC)c2)[C@H](C)[C@H]2OC(=O)O[C@@]21C | 32 (≈ 26.9 µM) | > 256 | 1 | > 256 | > 256 | 0.25 (≈ 0.21 µM) | 8 | 4 | 4 (≈ 3.37 µM) | 4 (≈ 3.37 µM) | 64 (≈ 53.9 µM) | 0.12 (≈ 0.101 µM) | >8 | 0.03 (≈ 0.0252 µM) | > 128 | >4 | 4 (≈ 3.37 µM) | 0.5 (≈ 0.421 µM) | 8 | 16 (≈ 13.5 µM)
2 | CC[C@H]1OC(=O)[C@H](C)[C@@H](OC(=O)CCNCCCCNc2cc3c(cc2F)c(=O)c(C(=O)O)cn3C2CC2)[C@H](C)[C@@H](O[C@@H]2O[C@H](C)C[C@H](N(C)C)[C@H]2O)[C@](C)(OC)C[C@@H](C)/C(=N\OC/C=C/c2ccc3c(c2)c(=O)c(C(N)=O)cn3CC)[C@H](C)[C@H]2OC(=O)O[C@@]21C | 2 (≈ 1.57 µM) | > 256 | 1 | > 256 | > 256 | 0.12 (≈ 0.0943 µM) | 8 | 1 | 8 (≈ 6.29 µM) | 8 (≈ 6.29 µM) | 64 (≈ 50.3 µM) | 0.06 (≈ 0.0472 µM) | >8 | 0.06 (≈ 0.0472 µM) | > 2 | >4 | 0.25 (≈ 0.196 µM) | 0.06 (≈ 0.0472 µM) | 2 | 0.25 (≈ 0.196 µM)
3 | CC[C@H]1OC(=O)[C@H](C)[C@@H](OC(=O)CCNCCCCNc2cc3c(cc2F)c(=O)c(C(=O)O)cn3C2CC2)[C@H](C)[C@@H](O[C@@H]2O[C@H](C)C[C@H](N(C)C)[C@H]2O)[C@](C)(OC)C[C@@H](C)/C(=N\OCC#Cc2cncc(C(=O)NC3CC3)c2)[C@H](C)[C@H]2OC(=O)O[C@@]21C | > 0.25 | > 256 | 1 | 64 (≈ 52.6 µM) | 128 (≈ 105 µM) | 0.008 (≈ 0.00658 µM) | >8 |  | 8 (≈ 6.58 µM) | 8 (≈ 6.58 µM) | 32 (≈ 26.3 µM) | ≤ 0.008 | >8 | ≤ 0.008 | > 0.5 | 2 | 0.03 (≈ 0.0247 µM) | 0.008 (≈ 0.00658 µM) | >=1 | 0.06 (≈ 0.0493 µM)
4 | CC[C@H]1OC(=O)[C@H](C)[C@@H](OC(=O)CCNCCCCNc2cc3c(cc2F)c(=O)c(C(=O)O)cn3C2CC2)[C@H](C)[C@@H](O[C@@H]2O[C@H](C)C[C@H](N(C)C)[C@H]2O)[C@](C)(OC)C[C@@H](C)/C(=N\OCC#Cc2ccc3c(c2)c(=O)c(C(N)=O)cn3CC)[C@H](C)[C@H]2OC(=O)O[C@@]21C | 8 (≈ 6.3 µM) | > 256 | 1 | > 256 | > 256 | 0.12 (≈ 0.0945 µM) | 4 | 1 | 8 (≈ 6.3 µM) | 8 (≈ 6.3 µM) | 128 (≈ 101 µM) | 0.25 (≈ 0.197 µM) | >8 | 0.12 (≈ 0.0945 µM) | > 8 |  | 2 (≈ 1.57 µM) | 0.25 (≈ 0.197 µM) | 1 | 1 (≈ 0.787 µM)
5 | CC[C@H]1OC(=O)[C@H](C)[C@@H](OC(=O)CCNCCCCNc2cc3c(cc2F)c(=O)c(C(=O)O)cn3C2CC2)[C@H](C)[C@@H](O[C@@H]2O[C@H](C)C[C@H](N(C)C)[C@H]2O)[C@](C)(OC)C[C@@H](C)/C(=N\OCC#Cc2cncc(C(N)=O)c2)[C@H](C)[C@H]2OC(=O)O[C@@]21C | > 0.5 | > 256 | 1 | 128 (≈ 109 µM) | 128 (≈ 109 µM) | 0.008 (≈ 0.0068 µM) | >8 |  | 2 (≈ 1.7 µM) | 2 (≈ 1.7 µM) | 64 (≈ 54.4 µM) | ≤ 0.008 | >8 | ≤ 0.008 | > 0.5 | 2 | 0.06 (≈ 0.051 µM) | 0.008 (≈ 0.0068 µM) | >=1 | 0.06 (≈ 0.051 µM)
6 | CC[C@H]1OC(=O)[C@H](C)[C@@H](OC(=O)CCNCCCCNc2cc3c(cc2F)c(=O)c(C(=O)O)cn3C2CC2)[C@H](C)[C@@H](O[C@@H]2O[C@H](C)C[C@H](N(C)C)[C@H]2O)[C@](C)(OC)C[C@@H](C)/C(=N\OC/C=C/c2cncc(C(N)=O)c2)[C@H](C)[C@H]2OC(=O)O[C@@]21C | 0.25 (≈ 0.212 µM) | > 256 | 1 | 32 (≈ 27.2 µM) | > 256 | 0.008 (≈ 0.00679 µM) | 2 |  | 16 (≈ 13.6 µM) | 16 (≈ 13.6 µM) | 32 (≈ 27.2 µM) | ≤ 0.008 | >8 | ≤ 0.008 | > 2 | 1 | 0.12 (≈ 0.102 µM) | 0.008 (≈ 0.00679 µM) | >=1 | 0.25 (≈ 0.212 µM)
7 | CC[C@H]1OC(=O)[C@H](C)C(=O)[C@H](C)[C@@H](O[C@@H]2O[C@H](C)C[C@H](N(C)C)[C@H]2O)[C@](C)(OC)C[C@@H](C)C(=O)[C@H](C)[C@H]2N(CCCCn3cnc(-c4cccnc4)c3)C(=O)O[C@]12C [TELITHROMYCIN] | 1 (≈ 1.23 µM) |  |  | 1 (≈ 1.23 µM) | > 256 | 0.125 (≈ 0.154 µM) | 8 | 8 |  |  |  | 0.5 (≈ 0.616 µM) | 4 | 0.031 (≈ 0.0382 µM) | 0.125 (≈ 0.154 µM) | 4 | 0.125 (≈ 0.154 µM) | 4 (≈ 4.93 µM) | 4 | 0.031 (≈ 0.0382 µM)
8 | CC[C@H]1OC(=O)[C@H](C)[C@@H](OC(=O)CCN2CCN(c3cc4c(cc3F)c(=O)c(C(=O)O)cn4C3CC3)CC2)[C@H](C)[C@@H](O[C@@H]2O[C@H](C)C[C@H](N(C)C)[C@H]2O)[C@](C)(OC)C[C@@H](C)/C(=N\OCC#Cc2cncc(C(N)=O)c2)[C@H](C)[C@H]2OC(=O)O[C@@]21C | > 32 |  | 1 | > 64 | > 256 | 0.5 (≈ 0.426 µM) | >8 | 2 | 8 (≈ 6.81 µM) | 8 (≈ 6.81 µM) | 8 (≈ 6.81 µM) | 0.5 (≈ 0.426 µM) | 2 | 0.25 (≈ 0.213 µM) | 1 (≈ 0.852 µM) | >8 | 4 (≈ 3.41 µM) | 1 (≈ 0.852 µM) | 2 | 0.5 (≈ 0.426 µM)
